Values after ≈ are worked out from the molar mass of the structure shown.
Key:
[1] = Cytotoxicity against human GSC-3 cells assessed as reduction in cell viability incubated for 72 hrs by MTS assay; type: functional, cell-based; conditions: GSC-3, 72 h
SH-SY5Y [2] = assay: Cytotoxicity against human SH-SY5Y cells; type: functional, cell-based
CCF-STTG1 [3] = assay: Cytotoxicity against human CCF-STTG1 cells assessed as reduction in cell growth incubated for 24 hrs by MTT assay; type: functional, cell-based; conditions: CCF-STTG1, 24 h
[4] = Cytotoxicity against human CHG-5 cells assessed as reduction in cell growth incubated for 24 hrs by MTT assay; type: functional, cell-based; conditions: CHG-5, 24 h
[5] = Cytotoxicity against human SHG-44 cells assessed as reduction in cell growth incubated for 24 hrs by MTT assay; type: functional, cell-based; conditions: SHG-44, 24 h
[6] = Cytotoxicity against human CHG-5 cells assessed as reduction in cell viability incubated for 48 hrs by MTT assay; type: functional, cell-based; conditions: CHG-5, 48 h
CCF-STTG1 [7] = assay: Cytotoxicity against human CCF-STTG1 cells assessed as reduction in cell viability incubated for 48 hrs by MTT assay; type: functional, cell-based; conditions: CCF-STTG1, 48 h
[8] = Cytotoxicity against human SHG-44 cells assessed as reduction in cell viability incubated for 48 hrs by MTT assay; type: functional, cell-based; conditions: SHG-44, 48 h
U-251 [9] = assay: Cytotoxicity against human U-251MG cells assessed as reduction in cell viability incubated for 48 hrs by MTT assay; type: functional, cell-based; conditions: U-251, 48 h
SW1088 = assay: Cytotoxicity against human SW1088 cells assessed as reduction in cell growth incubated for 24 hrs by MTT colorimetric assay; type: functional, cell-based; conditions: SW1088, 24 h
[10] = Cytotoxicity against human U373 MG cells assessed as reduction in cell growth incubated for 24 hrs by MTT colorimetric assay; type: functional, cell-based, U-373MG ATCC
[11] = Toxicity in ip dosed B6D2F1 mouse assessed as maximum tolerated dose measured after 28 days; type: organism-based; conditions: in vivo, time 28 day
H4 = assay: Antiproliferative activity against human H4 cells assessed as reduction in cell viability incubated for 72 hrs by Prestoblue-reagent based assay; type: functional; conditions: H4, 72 h
[12] = Cytotoxicity against rat ASK cells assessed as reduction in cell growth by SRB assay; type: functional; conditions: read-out: ED50 (the source's name)
[13] = Cytotoxicity against human CHG-5 cells assessed as reduction in cell growth incubated for 48 hrs by MTT assay; type: functional, cell-based; conditions: CHG-5, 48 h
U-251 [14] = assay: Cytotoxicity against human U-251MG cells assessed as reduction in cell growth incubated for 48 hrs by MTT assay; type: functional, cell-based; conditions: U-251, 48 h
[15] = Cytotoxicity against human GL15 cells assessed as reduction in cell growth incubated for 48 hrs by MTT assay; type: functional, cell-based; conditions: GL15, 48 h
SH-SY5Y [16] = assay: Cytotoxicity against human SH-SY5Y cells assessed as reduction in cell growth incubated for 48 hrs by MTT assay; type: functional, cell-based
[17] = Cytotoxicity against human U-343MG cells assessed as reduction in cell growth incubated for 48 hrs by MTT assay; type: functional, cell-based
[18] = Cytotoxicity against human SHG-44 cells assessed as reduction in cell growth incubated for 48 hrs by MTT assay; type: functional, cell-based; conditions: SHG-44, 48 h
SF-295 = assay: Cytotoxicity against human SF-295 cells assessed as reduction in cell growth incubated for 96 hrs by MTT assay; type: functional, cell-based; conditions: SF-295, 96 h
SF-268 = assay: Antiproliferative activity against human SF-268 cells; type: functional, cell-based
[19] = Cytotoxicity against human U87MG.deltaEGFR cells by resazurin dye based assay; type: functional, cell-based
U-87 MG = assay: Cytotoxicity against human U-87 MG cells by resazurin dye based assay; type: functional, cell-based, U-87MG ATCC
GAMG = assay: Antiproliferative activity against human GAMG cells assessed as reduction in cell viability incubated for 48 hrs by MTS reagent based assay; type: functional

COc1cc2c(c(Oc3ccc(C=O)cc3)c1OC)-c1c(OC)c(OC)c(OC)c3ccnc(c13)C2=O
IC50 [1]: 16.3 µg/mL (≈ 32.5 µM)

COc1cc2c(c(Oc3ccc(C=O)cc3)c1OC)C[C@H]1c3c(cc(OC)c(OC)c3-2)CCN1C
IC50 [1]: 19.2 µg/mL (≈ 40.5 µM)

Cc1cc2nc3[nH]c(=O)[nH]c(=O)c3nc2cc1C [LUMICHROME]
IC50 (SH-SY5Y [2]): 75.2 µM

COc1ccc2c(c1OC)-c1c(OC)c(O)cc3c1[C@H](C2)[N@+](C)([O-])CC3
IC50 (CCF-STTG1 [3]): 81.8 µM
IC50 [4]: 83.7 µM
IC50 [5]: 83.7 µM

CC(=O)O[C@H]1C=C[C@]23c4cc5c(cc4[C@H](OC(C)=O)N(C[C@H]2O)[C@@H]3C1)OCO5
IC50 [6]: 30.1 µM
IC50 (CCF-STTG1 [7]): 27.1 µM
IC50 [8]: 27.1 µM
IC50 (U-251 [9]): 17.4 µM

O=C1c2c(O)ccnc2-c2nccc3c2c1nc1ccccc13
IC50 (SW1088): 6 µM
IC50 [10]: 6 µM
MTD at 672 h [11]: > 160 mg/kg

c1ccc2c(c1)[nH]c1cnccc12 [NORHARMANE]
IC50 (H4): 49 µM

Oc1cc2c3c(c1O)c1cc4c(cc1c[n+]3CC2)OCO4
IC50 [6]: 10.2 µM
IC50 (CCF-STTG1 [7]): 10.3 µM
IC50 [8]: 9.4 µM
IC50 (U-251 [9]): 11.8 µM

COc1cc2c(cc1OC)-c1c3c(cc4ccnc(c14)C2=O)OCO3 [DICENTRINONE]
EC50 [12]: 10.2 µg/mL (≈ 30.4 µM)

N#Cc1cnc2cccc(O)c2c1O
IC50 (SH-SY5Y [2]): 62.6 µM

O=C1c2cccnc2-c2nccc3c2c1nc1cc(Br)ccc13
IC50 (SW1088): 0.4 µM
IC50 [10]: 0.6 µM
MTD at 672 h [11]: 20 mg/kg

CO[C@@H]1C=C[C@@]23c4cc5c(cc4CN(CCc4ccc(O)cc4)[C@@H]2CN(C)[C@H]3C1)OCO5
IC50 [13]: 41.8 µM
IC50 (U-251 [14]): 46.6 µM
IC50 [15]: 39.8 µM
IC50 (SH-SY5Y [16]): 53.7 µM
IC50 [17]: 43.2 µM
IC50 [18]: 43.7 µM

COc1cc(OC)c2c(c1)C(=O)c1nccc3cc4c(c-2c13)OCO4 [OXODISCOGUATTINE]
EC50 [12]: 2.11 µg/mL (≈ 6.29 µM)

COc1cc2c(cc1OC)[C@H](O)[C@@H]1c3c(cc4c(c3-2)OCO4)CCN1C
IC50 (SF-295): 1.41 µg/mL (≈ 3.97 µM)

COc1cc2c(cc1OC)[C@H](O)[C@@H]1c3c(cc4c(c3-2)OCO4)CC[N@@+]1(C)[O-]
IC50 (SF-295): 1.62 µg/mL (≈ 4.36 µM)

CN[C@H]1C[C@H](OC)C=C[C@@]12C(=O)N(CCCC(=O)O)Cc1cc3c(cc12)OCO3
IC50 [13]: 12.2 µM
IC50 (U-251 [14]): 11.3 µM
IC50 [15]: 11.4 µM
IC50 (SH-SY5Y [16]): 13.7 µM
IC50 [17]: 12.2 µM
IC50 [18]: 10.8 µM

C[C@@H]1CC[C@H]2C(C)(C)[C@H](O)CC[C@]2(C)[C@@]12Cc1c(O)cc3c(c1O2)C(=O)NC3
IC50 (SF-268): 11.2 µM

C[C@@H]1CC[C@H]2C(C)(C)[C@H](O)CC[C@]2(C)[C@@]12Cc1c(O)cc3c(c1O2)C(=O)NC3=O
IC50 (SF-268): 43.3 µM

COc1cc2c(c(Oc3ccc(C=O)cc3)c1OC)-c1c(OC)c(OC)cc3ccnc(c13)C2=O
IC50 [1]: 15.5 µg/mL (≈ 32.8 µM)

COc1cc2c(cc1O)[C@H](OC(C)=O)N1C[C@@H](O)[C@]23C=C[C@H](OC)C[C@@H]13
IC50 [6]: 29.4 µM
IC50 (CCF-STTG1 [7]): 29.4 µM
IC50 [8]: 27.1 µM
IC50 (U-251 [9]): 17.4 µM

COc1c(OC)c(OC)c2c3c(cc4ccccc42)NC(=O)c13 [PIPEROLACTAM C]
EC50 [12]: 12.8 µg/mL (≈ 41.3 µM)

COc1c2c(cc3[nH]c4ccccc4c(=O)c13)OCO2
IC50 [19]: 5.72 µM
IC50 (U-87 MG): 89.3 µM

[O-][N+]12CCc3cc(O)c(O)c(c31)-c1cc3c(cc1C2)OCO3 (single isomer, unassigned; (+))
IC50 (U-251 [9]): 93.7 µM

COc1cc2c(c(Oc3ccc(C=O)cc3)c1OC)C[C@H]1c3c(c(OC)c(OC)c(OC)c3-2)CCN1C
IC50 [1]: 14.5 µg/mL (≈ 28.7 µM)

CO[C@@H]1C=C[C@@]23c4cc5c(cc4CN(CCc4ccccc4)[C@@H]2CN(C)[C@H]3C1)OCO5
IC50 [13]: 17.7 µM
IC50 (U-251 [14]): 18.4 µM
IC50 [15]: 18.9 µM
IC50 (SH-SY5Y [16]): 15.8 µM
IC50 [17]: 14.6 µM
IC50 [18]: 15.4 µM

CO[C@H]1C=C[C@]23c4cc5c(cc4[C@H](OC(C)=O)N(C[C@H]2O)[C@@H]3C1)OCO5
IC50 [6]: 30 µM
IC50 (CCF-STTG1 [7]): 27.1 µM
IC50 [8]: 28.3 µM
IC50 (U-251 [9]): 15.8 µM

COC(=O)C1=CO[C@@H](C)[C@@H]2CN3CC[C@]4(C(=O)Nc5ccccc54)[C@@H]3C[C@H]12
IC50 (GAMG): 20.1 µM

From ChEMBL document CHEMBL6115010, “Targeting glioma with heteroaromatic alkaloids: A review of potential therapeutics” (Bioorg Med Chem, 2025)
